{"source": "paper PMC7469689", "about": "“Substituted 4,5′-Bithiazoles as Catalytic Inhibitors of Human DNA Topoisomerase IIα” (Journal of Chemical Information and Modeling, 2020)", "key": {"human topo IIα": {"target": "T1, human topo IIα (Homo sapiens, UniProt P11388)", "T1 construct": "purchased Inspiralis (Norwich, U.K.)", "T1 sequence (P11388 whole entry)": "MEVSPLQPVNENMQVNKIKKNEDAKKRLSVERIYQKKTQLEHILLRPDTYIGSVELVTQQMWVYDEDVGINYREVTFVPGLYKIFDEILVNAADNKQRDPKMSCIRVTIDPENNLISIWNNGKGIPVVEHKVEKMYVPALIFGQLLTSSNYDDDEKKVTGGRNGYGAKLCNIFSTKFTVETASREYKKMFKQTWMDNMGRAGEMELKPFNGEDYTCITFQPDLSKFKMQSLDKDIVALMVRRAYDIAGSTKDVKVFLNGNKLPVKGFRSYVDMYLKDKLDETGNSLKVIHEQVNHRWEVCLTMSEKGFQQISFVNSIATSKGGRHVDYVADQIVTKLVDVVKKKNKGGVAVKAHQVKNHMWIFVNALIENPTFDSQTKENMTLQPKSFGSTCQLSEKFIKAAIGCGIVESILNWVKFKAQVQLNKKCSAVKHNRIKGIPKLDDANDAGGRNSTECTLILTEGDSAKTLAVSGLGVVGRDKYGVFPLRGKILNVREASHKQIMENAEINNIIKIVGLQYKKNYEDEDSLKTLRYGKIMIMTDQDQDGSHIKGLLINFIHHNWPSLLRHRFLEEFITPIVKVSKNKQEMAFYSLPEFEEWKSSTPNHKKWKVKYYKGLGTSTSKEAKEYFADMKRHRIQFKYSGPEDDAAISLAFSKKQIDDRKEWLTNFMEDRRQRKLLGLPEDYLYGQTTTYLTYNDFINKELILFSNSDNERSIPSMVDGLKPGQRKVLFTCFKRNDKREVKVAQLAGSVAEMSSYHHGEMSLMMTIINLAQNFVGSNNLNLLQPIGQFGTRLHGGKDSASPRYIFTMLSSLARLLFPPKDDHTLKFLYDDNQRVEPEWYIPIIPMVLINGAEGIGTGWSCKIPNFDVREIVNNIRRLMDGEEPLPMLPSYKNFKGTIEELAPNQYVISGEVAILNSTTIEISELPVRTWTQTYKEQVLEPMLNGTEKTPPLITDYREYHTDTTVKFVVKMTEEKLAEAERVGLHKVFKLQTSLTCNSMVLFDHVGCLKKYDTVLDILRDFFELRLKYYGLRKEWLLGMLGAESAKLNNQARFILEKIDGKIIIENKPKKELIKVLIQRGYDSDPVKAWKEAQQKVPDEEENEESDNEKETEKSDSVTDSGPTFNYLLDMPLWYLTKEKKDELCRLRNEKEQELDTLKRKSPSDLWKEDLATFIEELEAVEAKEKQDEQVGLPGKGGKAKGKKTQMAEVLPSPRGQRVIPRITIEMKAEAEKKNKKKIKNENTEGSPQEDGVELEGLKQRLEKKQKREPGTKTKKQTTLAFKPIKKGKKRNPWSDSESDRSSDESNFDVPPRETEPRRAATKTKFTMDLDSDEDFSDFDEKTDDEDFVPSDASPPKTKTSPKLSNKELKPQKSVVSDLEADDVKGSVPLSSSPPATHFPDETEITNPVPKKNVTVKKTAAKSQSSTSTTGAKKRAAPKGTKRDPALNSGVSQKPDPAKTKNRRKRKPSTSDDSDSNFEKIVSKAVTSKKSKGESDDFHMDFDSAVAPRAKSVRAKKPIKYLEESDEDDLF", "assay": "Human topoisomerase II competitive ATPase assay", "format": "biochemical", "procedure": "The human topo competitive ATPase assay was executed at Inspiralis (Norwich, U.K.). The compound was analyzed using a kinase/lactate dehydrogenase assay as described above.\nA mixture of the assay buffer (20 mM Tris–HCl, 5 mM magnesium acetate, 125 mM potassium acetate, 2 mM DTT, pH 7.9), linear pBR322 (1.5 μL of 1 mg/mL per assay), phosphoenol pyruvate (0.5 μL of 80 mM per assay), pyruvate kinase/lactate dehydrogenase mix (0.75 μL per assay), NADH (1 μL of 20 mM per assay), DMSO (1.5 μL per assay), and water (32.85 μL per assay) was prepared. This mixture (41.1 μL) was put into the wells of a 384-well microtiter plate. DMSO (0.5 μL) or the diluted investigated compound in the DMSO was added to the wells and mixed. Subsequently, 5 μL of the dilution buffer or human topo IIα (12 nM final concentration) was added and mixed. Before the run, a prerun was done where we added 3.4 μL of the appropriate concentration of ATP and monitored the OD340 for up to 35 min. The assay temperature was 37 °C. Two negative controls (4% DMSO and dilution buffer without enzyme) were used in the presence of 2 mM ATP. The ATP concentrations in this assay were 0.025, 0.05, 0.075, 0.1, 0.25, 0.5, 0.75, and 1 mM. The assays were executed in duplicate at 3.9, 31, 50, 75, and 100 μM final concentrations of the investigated compound 1. DMSO has a final concentration of 4% (v/v) in all of the reactions.\n8. Human topoisomerase II ATPase assays at different concentration of the ATP – Competitive ATPase assay\nThe spectrophotometer produces an output as change in OD340 with time (data not shown).\nThe data from the runs after the addition of the ATP were plotted after adjusting the starting OD340 to zero. Lines are fitted to these by linear regression and the rates (OD change/min) calculated. The rates for each ATP and inhibitor concentration were then calculated as μM ATP hydrolysed/min using an extinction coefficient of 6.22 M-1 cm-1 and a path length of 0.5 cm. The rates were then plotted against the ATP concentration and curves fitted to the data using the hyperbolic equation y=(ax/(b+x) where y = rate, x = [ATP], a = Vmax and b=Km.\nUsing the equation y=y0+(ax/(b+x)) it was possible to solve it and obtain values. […]\nconcentrations after subtraction of the background rate and calculated Km (mM ATP) and Vmax (μM ATP/min) values. They were calculated from equation y = (ax /(b+x) where y = rate, x = [ATP], a = Vmax.\nRates for controls without enzyme in the presence of 2 mM ATP (μmol/min) […]\nRates (μmol/min) at different ATP concentrations (mM) after subtraction of background […]\nCalculated Km (mM ATP) and Vmax (μM ATP/min) values"}, "HepG2 cells [1]": {"tested_on": "HepG2 cells", "assay": "Cell cycle analysis by flow cytometry", "format": "cell-based, human", "settings": "24 h"}, "HepG2 cells [2]": {"tested_on": "HepG2 cells", "assay": "DNA double-strand break induction, γ-H2AX assay", "format": "cell-based, human"}}, "note": "Like-named read-outs stand apart in the source and are kept apart here.", "data": [{"smiles": "Cc1nc(N)sc1-c1csc(Nc2ccc(C(F)(F)F)cc2)n1", "note": "[Compound 1]", "values": [{"measurement": "IC50", "setting": "human topo IIα; ATP 0.025 (mM per method), fit R^2 0.474, read-out: IC50 at c(ATP) 0.025", "value": 0.0038, "unit": "mM"}, {"measurement": "IC50", "setting": "human topo IIα; ATP 0.05 (mM per method), read-out: IC50 at c(ATP) 0.05", "value": 0.0088, "unit": "mM"}, {"measurement": "IC50", "setting": "human topo IIα; ATP 0.075 (mM per method), read-out: IC50 at c(ATP) 0.075", "value": 0.0148, "unit": "mM"}, {"measurement": "IC50", "setting": "human topo IIα; ATP 0.1 (mM per method), read-out: IC50 at c(ATP) 0.1", "value": 0.0094, "unit": "mM"}, {"measurement": "IC50", "setting": "human topo IIα; ATP 0.25 (mM per method), read-out: IC50 at c(ATP) 0.25", "value": 0.0183, "unit": "mM"}, {"measurement": "IC50", "setting": "human topo IIα; ATP 0.5 (mM per method), read-out: IC50 at c(ATP) 0.5", "value": 0.0152, "unit": "mM"}, {"measurement": "IC50", "setting": "human topo IIα; ATP 0.75 (mM per method), read-out: IC50 at c(ATP) 0.75", "value": 0.0178, "unit": "mM"}, {"measurement": "IC50", "setting": "human topo IIα; ATP 1 (mM per method), read-out: IC50 at c(ATP) 1", "value": 0.0216, "unit": "mM"}, {"measurement": "IC50", "setting": "human topo IIα; ATP 2 (mM per method), read-out: IC50 at c(ATP) 2", "value": 0.0254, "unit": "mM"}, {"measurement": "Calculated Vmax", "setting": "human topo IIα; compound 3.9 μM", "value": 2.97, "unit": "μM ATP/min"}, {"measurement": "Rate of ATP hydrolysis after subtraction of background", "setting": "human topo IIα; compound 3.9 μM, ATP 0.025 mM", "value": 0.064, "unit": "µmol/min"}, {"measurement": "Rate of ATP hydrolysis after subtraction of background", "setting": "human topo IIα; compound 3.9 μM, ATP 0.05 mM", "value": 0.257, "unit": "µmol/min"}, {"measurement": "Rate of ATP hydrolysis after subtraction of background", "setting": "human topo IIα; compound 3.9 μM, ATP 0.075 mM", "value": 0.354, "unit": "µmol/min"}, {"measurement": "Rate of ATP hydrolysis after subtraction of background", "setting": "human topo IIα; compound 3.9 μM, ATP 0.1 mM", "value": 0.450, "unit": "µmol/min"}, {"measurement": "Rate of ATP hydrolysis after subtraction of background", "setting": "human topo IIα; compound 3.9 μM, ATP 0.25 mM", "value": 1.158, "unit": "µmol/min"}, {"measurement": "Rate of ATP hydrolysis after subtraction of background", "setting": "human topo IIα; compound 3.9 μM, ATP 0.5 mM", "value": 1.479, "unit": "µmol/min"}, {"measurement": "Rate of ATP hydrolysis after subtraction of background", "setting": "human topo IIα; compound 3.9 μM, ATP 0.75 mM", "value": 1.801, "unit": "µmol/min"}, {"measurement": "Rate of ATP hydrolysis after subtraction of background", "setting": "human topo IIα; compound 3.9 μM, ATP 1 mM", "value": 1.897, "unit": "µmol/min"}, {"measurement": "Rate of ATP hydrolysis after subtraction of background", "setting": "human topo IIα; compound 3.9 μM, ATP 2 mM", "value": 2.444, "unit": "µmol/min"}, {"measurement": "Calculated Vmax", "setting": "human topo IIα; compound 31 μM", "value": 1.9, "unit": "μM ATP/min"}, {"measurement": "Rate of ATP hydrolysis after subtraction of background", "setting": "human topo IIα; compound 31 μM, ATP 0.05 mM", "value": 0.032, "unit": "µmol/min"}, {"measurement": "Rate of ATP hydrolysis after subtraction of background", "setting": "human topo IIα; compound 31 μM, ATP 0.075 mM", "value": 0.096, "unit": "µmol/min"}, {"measurement": "Rate of ATP hydrolysis after subtraction of background", "setting": "human topo IIα; compound 31 μM, ATP 0.1 mM", "value": 0.161, "unit": "µmol/min"}, {"measurement": "Rate of ATP hydrolysis after subtraction of background", "setting": "human topo IIα; compound 31 μM, ATP 0.25 mM", "value": 0.450, "unit": "µmol/min"}, {"measurement": "Rate of ATP hydrolysis after subtraction of background", "setting": "human topo IIα; compound 31 μM, ATP 0.5 mM", "value": 0.707, "unit": "µmol/min"}, {"measurement": "Rate of ATP hydrolysis after subtraction of background", "setting": "human topo IIα; compound 31 μM, ATP 0.75 mM", "value": 0.868, "unit": "µmol/min"}, {"measurement": "Rate of ATP hydrolysis after subtraction of background", "setting": "human topo IIα; compound 31 μM, ATP 1 mM", "value": 1.061, "unit": "µmol/min"}, {"measurement": "Rate of ATP hydrolysis after subtraction of background", "setting": "human topo IIα; compound 31 μM, ATP 2 mM", "value": 1.286, "unit": "µmol/min"}, {"measurement": "Calculated Vmax", "setting": "human topo IIα; compound 50 μM", "value": 2.77, "unit": "μM ATP/min"}, {"measurement": "Rate of ATP hydrolysis after subtraction of background", "setting": "human topo IIα; compound 50 μM, ATP 0.025 mM", "value": 0.000, "unit": "µmol/min"}, {"measurement": "Rate of ATP hydrolysis after subtraction of background", "setting": "human topo IIα; compound 50 μM, ATP 0.05 mM", "value": 0.096, "unit": "µmol/min"}, {"measurement": "Rate of ATP hydrolysis after subtraction of background", "setting": "human topo IIα; compound 50 μM, ATP 0.075 mM", "value": 0.129, "unit": "µmol/min"}, {"measurement": "Rate of ATP hydrolysis after subtraction of background", "setting": "human topo IIα; compound 50 μM, ATP 0.1 mM", "value": 0.032, "unit": "µmol/min"}, {"measurement": "Rate of ATP hydrolysis after subtraction of background", "setting": "human topo IIα; compound 50 μM, ATP 0.25 mM", "value": 0.193, "unit": "µmol/min"}, {"measurement": "Rate of ATP hydrolysis after subtraction of background", "setting": "human topo IIα; compound 50 μM, ATP 0.5 mM", "value": 0.450, "unit": "µmol/min"}, {"measurement": "Rate of ATP hydrolysis after subtraction of background", "setting": "human topo IIα; compound 50 μM, ATP 0.75 mM", "value": 0.707, "unit": "µmol/min"}, {"measurement": "Rate of ATP hydrolysis after subtraction of background", "setting": "human topo IIα; compound 50 μM, ATP 1 mM", "value": 0.772, "unit": "µmol/min"}, {"measurement": "Rate of ATP hydrolysis after subtraction of background", "setting": "human topo IIα; compound 50 μM, ATP 2 mM", "value": 1.222, "unit": "µmol/min"}, {"measurement": "Calculated Vmax", "setting": "human topo IIα; compound 75 μM", "value": 1.94, "unit": "μM ATP/min"}, {"measurement": "Rate of ATP hydrolysis after subtraction of background", "setting": "human topo IIα; compound 75 μM, ATP 0.025 mM", "value": 0.096, "unit": "µmol/min"}, {"measurement": "Rate of ATP hydrolysis after subtraction of background", "setting": "human topo IIα; compound 75 μM, ATP 0.05 mM", "value": 0.032, "unit": "µmol/min"}, {"measurement": "Rate of ATP hydrolysis after subtraction of background", "setting": "human topo IIα; compound 75 μM, ATP 0.1 mM", "value": 0.064, "unit": "µmol/min"}, {"measurement": "Rate of ATP hydrolysis after subtraction of background", "setting": "human topo IIα; compound 75 μM, ATP 0.25 mM", "value": 0.225, "unit": "µmol/min"}, {"measurement": "Rate of ATP hydrolysis after subtraction of background", "setting": "human topo IIα; compound 75 μM, ATP 0.5 mM", "value": 0.322, "unit": "µmol/min"}, {"measurement": "Rate of ATP hydrolysis after subtraction of background", "setting": "human topo IIα; compound 75 μM, ATP 0.75 mM", "value": 0.386, "unit": "µmol/min"}, {"measurement": "Rate of ATP hydrolysis after subtraction of background", "setting": "human topo IIα; compound 75 μM, ATP 1 mM", "value": 0.354, "unit": "µmol/min"}, {"measurement": "Rate of ATP hydrolysis after subtraction of background", "setting": "human topo IIα; compound 75 μM, ATP 2 mM", "value": 0.740, "unit": "µmol/min"}, {"measurement": "Calculated Vmax", "setting": "human topo IIα; compound 100 μM", "value": 3.07, "unit": "μM ATP/min"}, {"measurement": "Rate of ATP hydrolysis after subtraction of background", "setting": "human topo IIα; compound 100 μM, ATP 0.025 mM", "value": 0.064, "unit": "µmol/min"}, {"measurement": "Rate of ATP hydrolysis after subtraction of background", "setting": "human topo IIα; compound 100 μM, ATP 0.05 mM", "value": 0.032, "unit": "µmol/min"}, {"measurement": "Rate of ATP hydrolysis after subtraction of background", "setting": "human topo IIα; compound 100 μM, ATP 0.075 mM", "value": 0.000, "unit": "µmol/min"}, {"measurement": "Rate of ATP hydrolysis after subtraction of background", "setting": "human topo IIα; compound 100 μM, ATP 0.1 mM", "value": 0.032, "unit": "µmol/min"}, {"measurement": "Rate of ATP hydrolysis after subtraction of background", "setting": "human topo IIα; compound 100 μM, ATP 0.25 mM", "value": 0.064, "unit": "µmol/min"}, {"measurement": "Rate of ATP hydrolysis after subtraction of background", "setting": "human topo IIα; compound 100 μM, ATP 0.5 mM", "value": 0.418, "unit": "µmol/min"}, {"measurement": "Rate of ATP hydrolysis after subtraction of background", "setting": "human topo IIα; compound 100 μM, ATP 0.75 mM", "value": 0.289, "unit": "µmol/min"}, {"measurement": "Rate of ATP hydrolysis after subtraction of background", "setting": "human topo IIα; compound 100 μM, ATP 1 mM", "value": 0.354, "unit": "µmol/min"}, {"measurement": "Rate of ATP hydrolysis after subtraction of background", "setting": "human topo IIα; compound 100 μM, ATP 2 mM", "value": 0.772, "unit": "µmol/min"}, {"measurement": "cell cycle arrest (in words)", "setting": "HepG2 cells [1]", "value": "cell cycle arrest in the G1 phase"}, {"measurement": "induction of DNA double-strand breaks (γH2AX)", "setting": "HepG2 cells [2]; 10 μM", "value": "did not induce an increase in DNA-DSB formation"}, {"measurement": "induction of DNA double-strand breaks (γH2AX)", "setting": "HepG2 cells [2]; 50 μM", "value": "did not induce an increase in DNA-DSB formation"}]}]}
